According to patent US10314816B2, “Antimicrobial compounds, compositions and methods of use thereof” (Wisconsin Alumni Research Foundation, priority 2012, dated 2019):

Tests used:
[1] = system: S. aureus FRI 100; assay: MIC of bacterial growth, macrodilution (Table 2); format: cell-based; settings: Staphylococcus aureus, FRI100; S. aureus FRI 100, actively growing cells
Method: Bacterial strains and growth conditions. Luria-Bertani (LB) media (10 g/L tryptone, 10 g/L NaCl, 5 g/L yeast extract, pH 7.2) was used to grow B. subtilis 168, S. aureus FRI100, and P. aeruginosa K1115 strains. […] All cultures were grown at 37° C., except for C. crescentus (30° C.). All cultures were grown while shaking at 200 rpm.
Determination of the minimum inhibitory concentration (MIC) of bacterial growth. The MIC of various organisms in liquid media was determined using the macrodilution method according to the NCCLS guidelines. For the starting inoculum, cultures were diluted to contain approximately 5×10^5 cells/mL in growth media. To create a two-fold dilution series for the macrodilution technique, each compound was added to the first culture tube (4 mL total volume) at the highest concentration. 2 mL of this culture was diluted into an equal volume of inoculated media (a two-fold dilution). The final volume for each culture was 2 mL.

[2] = system: rabbit red blood cells (RBC); assay: Rabbit red blood cell (RBC) hemolysis assay; format: cell-based
Method: Rabbit red blood cell (RBC) hemolysis assay. Rabbit RBCs from Lampire Biological Laboratories were used. Prior to preparing the RBCs, compound-containing PBS solutions were serially diluted into a 96-well plate (a final volume of 100 μL/well). The RBC lysis solution (Epicentre Biotechnology) was included as a positive control for hemolysis. For each assay, 1 mL of the RBC suspension was removed from the stock bottle and centrifuged for 2 minutes at 2000 rpm. The pelleted cells were resuspended in sterile PBS solution and centrifuged again. The cells were resuspended in PBS and diluted 5-fold into the same solution. 100 μL aliquots of RBCs were added into wells of a 96-well plate that contained an equal volume of a solution of compound in PBS. The plates were incubated for varying amounts of time depending on the microbial assay conditions to be emulated. For MIC-like conditions, plates were incubated for at least 17 hours at 30° C. or 37° C. For MSC-like conditions, the incubation time was either 2 hours or 6 hours at 30° C. or 37° C. During the incubation, un-lysed RBCs settled at the bottom of the wells. At the end of the incubation, 90 μL of the supernatant was transferred into the wells of a fresh 96-well plate, and the absorbance of the heme at 2=405 nm was measured.
To test the toxicity of DCAP against mammalian membranes, the hemolysis of rabbit red blood cells (RBC) was measured. These experiments were performed using conditions that closely mimicked the MIC and MSC assays. RBCs were treated with CCCP and DCAP at their MICs for the time periods used (17 hours) to determine the MIC of C. crescentus and S. aureus. After incubation, the absorbance of heme released from lysed RBCs was measured.
The MSC assay conditions were also reproduced to measure toxicity against RBCs. First, the minimum time required to obtain the MSC for DCAP treatment of C. crescentus (2 hours) and S. aureus (6 hours; data not shown) was determined.

[3] = system: S. aureus FRI 100; assay: Minimum biofilm eradication concentration (MBEC); format: cell-based, Staphylococcus aureus; settings: S. aureus FRI 100 biofilm
Method: Determination of the minimum biofilm inhibitory concentration of growth (bMIC) and biofilm eradication concentration (MBEC). Overnight cultures of C. crescentus and S. aureus were grown and diluted 100-fold into appropriate nutrient media. Aliquots of the diluted suspension were transferred into wells of 96-well plates (150 μL/well). 2-fold serial dilutions were performed for compound-containing wells. For every experiment, three replicates for each compound concentration tested were included. After transferring aliquots of the suspension, the plates were closed with specialized lids that have protruding pins (Nunc STP System), and the plates were sealed using Parafilm®. The plates were incubated in a static incubator at 30° C. (C. crescentus) or 37° C. (S. aureus) for 24 hours. After the cells had formed biofilms on the surface of the pins, the pins were rinsed by dipping them in M2 (C. crescentus) or PBS (S. aureus) solutions. To rinse the pins, clean, sterile 96-well plates were used (aliquots of 200 μL/well); each rinse lasted 10 sec. After washing away planktonic cells loosely bound to biofilms, the pins were inserted into a 96-well plate that was pre-aliquoted with nutrient media containing antibiotics (2-fold dilutions, a final volume of 150 μL/well). The plates were sealed with Parafilm®, and incubated for 17 hours, and the bMIC was measured at the end of the incubation by visual inspection. After the bMIC run, the rinse steps were repeated to remove planktonic cells, and the pins were inserted into a 96-well plate that was pre-aliquoted with drug-free nutrient media (aliquots of 150 μL/well). The plates were sealed with Parafilm®, incubated for 24 hours, and the MBEC was measured at the end of the incubation by visual inspection.
After performing bMIC experiments, biofilms growing on the pins of the lid were transferred to nutrient media devoid of antibiotics to measure the minimum concentration of antibiotic that prevented planktonic growth from biofilms in antibiotic-free nutrient media (MBEC). […]

[4] = system: C. crescentus cells; assay: Measurement of ΔΨ using DiOC2, fluorescence microscopy; format: cell-based, Caulobacter crescentus; settings: 20 minutes of treatment, p<0.001
Method: For experiments with C. crescentus cells, the cells were prepared by diluting the overnight culture 10-fold into fresh PYE medium. The diluted culture was grown for 1 hour at 200 rpm and 30° C. The cells were treated with compounds for 10 minutes at room temperature, DiOC2 dye was added to a final concentration of 30 μM, and incubated for 10 minutes. After labeling, small aliquots (1-2 μl) of the suspensions of cells were transferred onto 1% agarose pads for fluorescence microscopy. A Nikon Eclipse TE2000E inverted microscope with an Andor DU-895 EMCCD camera, a Perfect Focus system, and an encoded z-stage were used for phase contrast and epifluorescence microscopy. For detecting green and red fluorescence of the dye, the following wavelengths (λex/λem): 484/520 nm and 555/620 nm, respectively, were used. Acquired images were analyzed using the MATLAB-based script MicrobeTracker. […] The segmentation was applied to the fluorescence images to calculate the fluorescence intensity for individual cells. A separate MATLAB script was written to process the results from MicrobeTracker, in which the cell-area normalized ratio of red to green fluorescence for each cell was calculated.
ΔΨ was measured for two model bacteria, C. crescentus (Gram-negative) and Bacillus subtilis (Gram-positive), in the absence and presence of DCAP. […] DiOC2 emits green fluorescence (λ=530 nm) in its monomeric form. […]

[5] = compounds at their MICs for C. crescentus and S. aureus, 17 hours

SMILES	MIC [1]	Hemolysis of rabbit RBCs [2, 5]	Hemolysis of rabbit RBCs ([2]; high concentration, MSC conditions for S. aureus (FIG. 8C))	MBEC [3]	ΔΨ (λ576/λ530 of DiOC2) [4]	Hemolysis of rabbit RBCs ([2]; MSC assay conditions, 2 hours (C. crescentus) and 6 hours (S. aureus))	Hemolysis of rabbit RBCs ([2]; higher concentrations of DCAP (i.e., 50 μM), 17 hours)
N#CC(C#N)=NNc1cccc(Cl)c1 [CCCP, carbonyl cyanide m-chlorophenyl hydrazone]	1.25 µM	did not significantly disrupt RBC membranes	toxic to RBCs at a high concentration	80 µM	significant decrease in λ576/λ530		
OCC(CO)(CO)NCC(O)Cn1c2ccc(Cl)cc2c2cc(Cl)ccc21 (centres unmarked) [DCAP, 2-((3-(3,6-dichloro-9H-carbazol-9-yl)-2-hydroxypropyl)amino)-2-(hydroxymethyl)propane-1,3-diol]	50 µM	did not significantly disrupt RBC membranes		>200 µM	significant decrease in λ576/λ530	no significant toxicity	moderately toxic to RBCs
